Experimental data from ChEMBL document CHEMBL3885861, “Open TG-GATES”.

Organism: Rattus norvegicus
Assay: Open TG-GATES - Regimen: Single
Type: toxicity, organism-based, Sprague-Dawley
Parameters: regimen Single, gender Male, age 6 weeks
Conditions: in vivo, po, route gavage; for Hb / Ht / Lym / MCH / MCHC / MCV / Mono / Neu / PT / Plat / RBC / Ret / WBC / APTT / Bas / Eos / Fbg: tissue Blood; for KIDNEY_L / KIDNEY_R / KIDNEY_TOTAL: tissue Kidney; for LIVER: tissue Liver; for A/G / ALP / ALT / AST / BUN / CRE / Ca / Cl / DBIL / GLC / IP / K / LDH / Na / PL / RALB / TBIL / TC / TG / TP / gamma-GTP: tissue Plasma
[1] = 15 mg/kg, 6 h, dose level Middle
[2] = 15 mg/kg, 9 h, dose level Middle
[3] = 15 mg/kg, 24 h, dose level Middle

Work on `COc1ccc2c(c1)c(CC(=O)O)c(C)n2C(=O)c1ccc(Cl)cc1` [INDOMETHACIN] yielded a Hb [1] of 14 g/dL, a Ht [1] of 38.4% and a Lym [1] of 71.4%. For the same compound, the MCH [1] was 22.9 pg, the MCHC [1] was 36.6% and the MCV [1] was 62.7 fL. For the same compound, the Mono [1] was 3.4%, the Neu [1] was 22.8% and the PT [1] was 12.2 s. The Plat [1] was 116.9 x10_4/uL, the RBC [1] was 613.2 x10_4/ul and the Ret [1] was 7.8%. For the same compound, the WBC [1] was 112.3 x10_2/uL, the KIDNEY_L [1] was 1 g and the KIDNEY_R [1] was 1 g. For the same compound, the KIDNEY_TOTAL [1] was 2 g, the LIVER [1] was 9.3 g and the A/G [1] was 1.6. It also gave an ALP [1] of 853.6 IU/L, an ALT [1] of 39.6 IU/L and an AST [1] of 70 IU/L. It also gave a BUN [1] of 12.8 mg/dL, a CRE [1] of 0.4 mg/dL and a Ca [1] of 10.5 mg/dL. The Cl [1] was 103.4 meq/L, the DBIL [1] was 0.074 mg/dL and the GLC [1] was 200.2 mg/dL. For the same compound, the IP [1] was 9.5 mg/dL, the K [1] was 4.1 meq/L and the LDH [1] was 204.8 IU/L. For the same compound, the Na [1] was 140.8 meq/L, the PL [1] was 135.6 mg/dL and the RALB [1] was 3.2 g/dL. It also gave a TBIL [1] of 0.1 mg/dL, a TC [1] of 74.4 mg/dL and a TG [1] of 66.6 mg/dL. For the same compound, the TP [1] was 5.3 g/dL, the gamma-GTP [1] was 1.2 IU/L and the TERMINAL_BW [2] was 220.7 g. For the same compound, the APTT [2] was 18 s, the Bas [2] was 0% and the Eos [2] was 0.4%. For the same compound, the Fbg [2] was 217.2 mg/dL, the Hb [2] was 13.6 g/dL and the Ht [2] was 37.1%. It also gave a Lym [2] of 69.4%, an MCH [2] of 22.4 pg and an MCHC [2] of 36.6%. The MCV [2] was 61.1 fL, the Mono [2] was 3.4% and the Neu [2] was 24.8%. For the same compound, the PT [2] was 12.5 s, the Plat [2] was 119.6 x10_4/uL and the RBC [2] was 607 x10_4/ul. For the same compound, the Ret [2] was 7.9%, the WBC [2] was 101.8 x10_2/uL and the KIDNEY_L [2] was 0.9 g. For the same compound, the KIDNEY_R [2] was 0.9 g, the KIDNEY_TOTAL [2] was 1.9 g and the LIVER [2] was 8.7 g. The A/G [2] was 1.6, the ALP [2] was 719.4 IU/L and the ALT [2] was 29.2 IU/L. For the same compound, the AST [2] was 63.8 IU/L, the BUN [2] was 13 mg/dL and the CRE [2] was 0.3 mg/dL. For the same compound, the Ca [2] was 10.4 mg/dL, the Cl [2] was 104.2 meq/L and the DBIL [2] was 0.07 mg/dL. For the same compound, the GLC [2] was 186.8 mg/dL, the IP [2] was 10 mg/dL and the K [2] was 4 meq/L. It also gave an LDH [2] of 202.2 IU/L, a Na [2] of 141.4 meq/L and a PL [2] of 125.4 mg/dL. It also gave an RALB [2] of 3.2 g/dL, a TBIL [2] of 0.1 mg/dL and a TC [2] of 69.6 mg/dL. For the same compound, the TG [2] was 36.8 mg/dL, the TP [2] was 5.2 g/dL and the gamma-GTP [2] was 1 IU/L. For the same compound, the TERMINAL_BW [3] was 227.1 g, the APTT [3] was 19.7 s and the Bas [3] was 0.2%. It also gave an Eos [3] of 0.8%, a Fbg [3] of 294.2 mg/dL and a Hb [3] of 10.8 g/dL. For the same compound, the Ht [3] was 31%, the Lym [3] was 57.8% and the MCH [3] was 21.3 pg. It also gave an MCHC [3] of 34.9%, an MCV [3] of 61.2 fL and a Mono [3] of 2.4%. The Neu [3] was 37.8%, the PT [3] was 12.2 s and the Plat [3] was 94.5 x10_4/uL. It also gave an RBC [3] of 509.2 x10_4/ul, a Ret [3] of 7.9% and a WBC [3] of 93.5 x10_2/uL. For the same compound, the KIDNEY_L [3] was 1 g, the KIDNEY_R [3] was 1 g and the KIDNEY_TOTAL [3] was 2.1 g. The LIVER [3] was 9.5 g, the A/G [3] was 1.3 and the ALP [3] was 547.6 IU/L. It also gave an ALT [3] of 28 IU/L, an AST [3] of 57 IU/L and a BUN [3] of 14.4 mg/dL. The CRE [3] was 0.4 mg/dL, the Ca [3] was 9.8 mg/dL and the Cl [3] was 105.4 meq/L. The DBIL [3] was 0.06 mg/dL, the GLC [3] was 173.2 mg/dL and the IP [3] was 9.6 mg/dL. It also gave a K [3] of 4.2 meq/L, an LDH [3] of 180.2 IU/L and a Na [3] of 141.2 meq/L. For the same compound, the PL [3] was 127 mg/dL, the RALB [3] was 2.5 g/dL and the TBIL [3] was 0.1 mg/dL. It also gave a TC [3] of 72.8 mg/dL, a TG [3] of 80.8 mg/dL and a TP [3] of 4.3 g/dL. The gamma-GTP [3] was 1.4 IU/L, the TERMINAL_BW (50 mg/kg, 3 h, dose level High) was 226 g and the APTT (50 mg/kg, 3 h, dose level High) was 21.4 s. The Bas (50 mg/kg, 3 h, dose level High) was 0.2%, the Eos (50 mg/kg, 3 h, dose level High) was 1% and the Fbg (50 mg/kg, 3 h, dose level High) was 216.6 mg/dL. For the same compound, the Hb (50 mg/kg, 3 h, dose level High) was 13.8 g/dL, the Ht (50 mg/kg, 3 h, dose level High) was 37.8% and the Lym (50 mg/kg, 3 h, dose level High) was 73.6%. The MCH (50 mg/kg, 3 h, dose level High) was 22.2 pg, the MCHC (50 mg/kg, 3 h, dose level High) was 36.4% and the MCV (50 mg/kg, 3 h, dose level High) was 60.9 fL. The Mono (50 mg/kg, 3 h, dose level High) was 2.4%, the Neu (50 mg/kg, 3 h, dose level High) was 22% and the PT (50 mg/kg, 3 h, dose level High) was 12 s. It also gave a Plat (50 mg/kg, 3 h, dose level High) of 119.2 x10_4/uL, an RBC (50 mg/kg, 3 h, dose level High) of 621.6 x10_4/ul and a Ret (50 mg/kg, 3 h, dose level High) of 8.1%. It also gave a WBC (50 mg/kg, 3 h, dose level High) of 114.1 x10_2/uL, a KIDNEY_L (50 mg/kg, 3 h, dose level High) of 0.9 g and a KIDNEY_R (50 mg/kg, 3 h, dose level High) of 0.9 g. For the same compound, the KIDNEY_TOTAL (50 mg/kg, 3 h, dose level High) was 1.9 g, the LIVER (50 mg/kg, 3 h, dose level High) was 9.8 g and the A/G (50 mg/kg, 3 h, dose level High) was 1.6. The ALP (50 mg/kg, 3 h, dose level High) was 971 IU/L.
